Key:
breast line MDA468 = assay: In vitro cell culture growth assay (MTS), MDA468; format: cell-based, human; settings: Homo sapiens, 72 h, MDA468 cells, three days after drug treatment
Description: Human tumor cell lines used include prostate lines LNCap and PC3MM2, breast lines MDA468, MCF7, renal line HTB44 (A498), colon line HCT116, and ovarian line OVCAR3. Cells were plated in 96-well culture plates. One day following plating, the inhibitors were added to cells. Three days after drug treatment, viable cell densities were determined by metabolic conversion (by viable cells) of the dye MTS, a well established cell proliferation assay. The assays were performed using an assay kit purchased from Promega Corp. (Madison, Wis.) following the protocol supplied with the kit. The MTS assay results were read in a 96-well plate reader by measuring absorbance at 490 nm. The effect of each treatment was calculated as percent of control growth relative to the vehicle-treated cells grown in the same culture plate.

prostate line LNCap = assay: In vitro cell culture growth assay (MTS), LNCap; format: cell-based, human; settings: Homo sapiens, LNCaP, 72 h, LNCap cells, three days after drug treatment
PI3K = PI3K (Homo sapiens, UniProt P42336); assay: Fluorescence polarization assay for PI3K; format: biochemical; settings: PI3Kα; read-out: PI3Kα IC50;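 also: PI3K kinase reaction on PIP2 with ATP, 30-60 min, product sensed by GST-GRP with red probe in fluorescence polarization (mP), controls without enzyme and at zero time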
Sequence of PI3K (P42336 whole entry): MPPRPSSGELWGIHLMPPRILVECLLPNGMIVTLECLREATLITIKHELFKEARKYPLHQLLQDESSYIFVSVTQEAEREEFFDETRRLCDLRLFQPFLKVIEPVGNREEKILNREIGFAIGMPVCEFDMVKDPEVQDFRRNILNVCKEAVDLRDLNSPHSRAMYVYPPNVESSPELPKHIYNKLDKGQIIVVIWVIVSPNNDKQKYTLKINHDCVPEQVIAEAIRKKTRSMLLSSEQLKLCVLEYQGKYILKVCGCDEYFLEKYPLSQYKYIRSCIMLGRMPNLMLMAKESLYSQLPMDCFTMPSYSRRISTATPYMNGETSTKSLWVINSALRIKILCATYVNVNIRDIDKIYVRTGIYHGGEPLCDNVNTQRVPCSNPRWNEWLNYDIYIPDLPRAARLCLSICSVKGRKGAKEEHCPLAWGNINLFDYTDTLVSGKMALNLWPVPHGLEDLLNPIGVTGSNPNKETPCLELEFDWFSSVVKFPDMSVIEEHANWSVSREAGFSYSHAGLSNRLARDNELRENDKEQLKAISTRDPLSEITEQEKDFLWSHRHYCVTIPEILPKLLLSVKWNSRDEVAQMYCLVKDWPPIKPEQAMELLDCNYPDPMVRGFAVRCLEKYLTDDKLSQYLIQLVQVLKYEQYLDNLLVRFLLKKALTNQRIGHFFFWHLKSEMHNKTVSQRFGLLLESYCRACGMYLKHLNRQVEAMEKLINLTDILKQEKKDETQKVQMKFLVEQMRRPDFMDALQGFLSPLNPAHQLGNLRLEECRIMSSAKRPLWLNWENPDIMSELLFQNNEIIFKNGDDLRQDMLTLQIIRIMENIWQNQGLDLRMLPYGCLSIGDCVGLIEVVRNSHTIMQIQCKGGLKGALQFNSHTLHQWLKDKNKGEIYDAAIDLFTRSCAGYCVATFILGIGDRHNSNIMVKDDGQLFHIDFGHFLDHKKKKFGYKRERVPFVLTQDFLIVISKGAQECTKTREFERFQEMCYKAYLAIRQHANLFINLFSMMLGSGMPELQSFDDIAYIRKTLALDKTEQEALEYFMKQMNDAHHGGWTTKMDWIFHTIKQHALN
Sequence of PI3K (P27986 whole entry partner): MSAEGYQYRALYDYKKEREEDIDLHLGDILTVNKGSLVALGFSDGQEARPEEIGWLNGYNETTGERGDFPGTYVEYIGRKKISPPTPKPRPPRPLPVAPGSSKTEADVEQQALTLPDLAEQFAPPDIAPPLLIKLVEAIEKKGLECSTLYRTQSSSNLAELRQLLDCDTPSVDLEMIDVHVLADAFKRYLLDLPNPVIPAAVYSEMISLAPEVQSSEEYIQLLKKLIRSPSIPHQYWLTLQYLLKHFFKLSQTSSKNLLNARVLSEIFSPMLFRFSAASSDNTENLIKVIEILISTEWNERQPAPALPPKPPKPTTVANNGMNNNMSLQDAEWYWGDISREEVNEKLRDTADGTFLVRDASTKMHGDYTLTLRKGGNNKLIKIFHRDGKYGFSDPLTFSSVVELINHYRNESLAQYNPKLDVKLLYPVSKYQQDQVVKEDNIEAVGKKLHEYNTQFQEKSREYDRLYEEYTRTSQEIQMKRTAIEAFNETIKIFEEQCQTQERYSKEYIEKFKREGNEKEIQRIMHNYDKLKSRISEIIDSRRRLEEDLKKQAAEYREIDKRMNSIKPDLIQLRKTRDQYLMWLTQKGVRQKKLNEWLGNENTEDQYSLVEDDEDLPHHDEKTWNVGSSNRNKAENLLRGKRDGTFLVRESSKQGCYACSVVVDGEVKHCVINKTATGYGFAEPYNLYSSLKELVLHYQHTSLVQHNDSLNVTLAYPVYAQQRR

Row | SMILES | IC50 (prostate line LNCap) [nM] | IC50 (PI3K) [nM] | IC50 (breast line MDA468) [nM]
1 | c1ccc(-n2ncc3c(N4CCOCC4)nc(-c4csc5ccccc45)nc32)cc1 [Compound 7] | 20000 | – | 38000
2 | Oc1cccc(-c2nc(N3CCOCC3)c3cnn(C4CCN(Cc5ccccc5)CC4)c3n2)c1 [Compound 8] | 220 | – | 1900
3 | O=C(c1cccnc1)N1CCC(n2ncc3c(N4CCOCC4)nc(-c4cccc(O)c4)nc32)CC1 [Compound 24, 3-{4-morpholin-4-yl-1-[1-(pyridin-3-ylcarbonyl)piperidin-4-yl]-1H-pyrazolo[3,4-d]pyrimidin-6-yl}phenol] | 200 | – | 700
4 | COC(=O)N1CCC(n2ncc3c(N4CCOCC4)nc(-c4ccc(NC(=O)Nc5ccc(CCN6CCCC6)cc5)cc4)nc32)CC1 [Compound 914, methyl 4-{4-morpholin-4-yl-6-[4-({[4-(2-pyrrolidin-1-ylethyl)phenyl]carbamoyl}amino)phenyl]-1H-pyrazolo[3,4-d]pyrimidin-1-yl}piperidine-1-carboxylate] | – | – | 20
5 | COC(=O)N1CCC(n2ncc3c(N4CCOCC4)nc(-c4ccc(NC(=O)Nc5ccc(CCN6CCN(C)CC6)cc5)cc4)nc32)CC1 [Compound 917, methyl 4-(6-{4-[({4-[2-(4-methylpiperazin-1-yl)ethyl]phenyl}carbamoyl)amino]phenyl}-4-morpholin-4-yl-1H-pyrazolo[3,4-d]pyrimidin-1-yl)piperidine-1-carboxylate] | – | – | 60
6 | COC(=O)N1CCC(n2ncc3c(N4CCOCC4)nc(-c4ccc(NC(=O)Nc5ccc(CCN6CCOCC6)cc5)cc4)nc32)CC1 [Compound 918, methyl 4-{4-morpholin-4-yl-6-[4-({[4-(2-morpholin-4-ylethyl)phenyl]carbamoyl}amino)phenyl]-1H-pyrazolo[3,4-d]pyrimidin-1-yl}piperidine-1-carboxylate] | – | – | 180
7 | O=C(Nc1ccc(-c2nc(N3CCOCC3)c3cnn(C4CCN(Cc5cccnc5)CC4)c3n2)cc1)OCCO [Compound 924, 2-hydroxyethyl (4-{4-morpholin-4-yl-1-[1-(pyridin-3-ylmethyl)piperidin-4-yl]-1H-pyrazolo[3,4-d]pyrimidin-6-yl}phenyl)carbamate] | – | – | 110
8 | COC(=O)Nc1ccc(-c2nc(N3CCOCC3)c3cnn(C4CCN(Cc5ccccc5)CC4)c3n2)cc1 [Example 154, methyl {4-[1-(1-benzylpiperidin-4-yl)-4-morpholin-4-yl-1H-pyrazolo[3,4-d]pyrimidin-6-yl]phenyl}carbamate] | – | – | 3000
9 | CNC(=O)Nc1ccc(-c2nc(N3CCOCC3)c3cnn(C4CCN(Cc5ccccc5)CC4)c3n2)cc1 [Example 206, N-{4-[1-(1-benzylpiperidin-4-yl)-4-morpholin-4-yl-1H-pyrazolo[3,4-d]pyrimidin-6-yl]phenyl}-N′-methylurea] | – | – | 100
10 | COC(=O)Nc1ccc(-c2nc(N3CCOCC3)c3cnn(C4CCN(Cc5cccnc5)CC4)c3n2)cc1 [Example 209, methyl (4-{4-morpholin-4-yl-1-[1-(pyridin-3-ylmethyl)piperidin-4-yl]-1H-pyrazolo[3,4-d]pyrimidin-6-yl}phenyl)carbamate] | – | – | 1500
11 | CCNC(=O)Nc1ccc(-c2nc(N3CCOCC3)c3cnn(C4CCN(Cc5ccccc5)CC4)c3n2)cc1 [Example 253, 1-{4-[1-(1-benzylpiperidin-4-yl)-4-morpholin-4-yl-1H-pyrazolo[3,4-d]pyrimidin-6-yl]phenyl}-3-ethylurea] | – | – | 400
12 | O=C(Nc1ccccc1)Nc1ccc(-c2nc(N3CCOCC3)c3cnn(C4CCN(Cc5ccccc5)CC4)c3n2)cc1 [Example 257, 1-{4-[1-(1-benzylpiperidin-4-yl)-4-morpholin-4-yl-1H-pyrazolo[3,4-d]pyrimidin-6-yl]phenyl}-3-phenylurea] | – | – | 1100
13 | O=C(NCCO)Nc1ccc(-c2nc(N3CCOCC3)c3cnn(C4CCN(Cc5ccccc5)CC4)c3n2)cc1 [Example 265, 1-{4-[1-(1-benzylpiperidin-4-yl)-4-morpholin-4-yl-1H-pyrazolo[3,4-d]pyrimidin-6-yl]phenyl}-3-(2-hydroxyethyl)urea] | – | – | 100
14 | O=C(Nc1ccc(-c2nc(N3CCOCC3)c3cnn(C4CCN(Cc5ccccc5)CC4)c3n2)cc1)NC1CC1 [Example 311, 1-{4-[1-(1-benzylpiperidin-4-yl)-4-morpholin-4-yl-1H-pyrazolo[3,4-d]pyrimidin-6-yl]phenyl}-3-cyclopropylurea] | – | – | 1100
15 | O=C(Nc1ccc(-c2nc(N3CCOCC3)c3cnn(C4CCN(Cc5ccccc5)CC4)c3n2)cc1)Nc1ncc[nH]1 [Example 326, 1-{4-[1-(1-benzylpiperidin-4-yl)-4-morpholin-4-yl-1H-pyrazolo[3,4-d]pyrimidin-6-yl]phenyl}-3-(1H-imidazol-2-yl)urea] | – | – | 3500
16 | CNC(=O)Nc1ccc(-c2nc(N3CCOCC3)c3cnn(C4CCN(C(=O)OC(C)(C)C)CC4)c3n2)cc1 [Example 337, tert-butyl 4-(6-{4-[(methylcarbamoyl)amino]phenyl}-4-morpholin-4-yl-1H-pyrazolo[3,4-d]pyrimidin-1-yl)piperidine-1-carboxylate] | – | – | 300
17 | CNC(=O)Nc1ccc(-c2nc(N3CCOCC3)c3cnn(C4CCN(C(=O)c5cccc(C)c5)CC4)c3n2)cc1 [Example 366, 1-methyl-3-(4-{1-[1-(3-methylbenzoyl)piperidin-4-yl]-4-morpholin-4-yl-1H-pyrazolo[3,4-d]pyrimidin-6-yl}phenyl)urea] | 27 | 73 | –
18 | O=C(NCCF)Nc1ccc(-c2nc(N3CCOCC3)c3cnn(C4CCN(C(=O)c5ccccc5)CC4)c3n2)cc1 [Example 380, 1-{4-[1-(1-benzoylpiperidin-4-yl)-4-morpholin-4-yl-1H-pyrazolo[3,4-d]pyrimidin-6-yl]phenyl}-3-(2-fluoroethyl)urea] | 27 | 454 | –
19 | CCNC(=O)Nc1ccc(-c2nc(N3CCOCC3)c3cnn(C4CCN(C(=O)c5ccccc5)CC4)c3n2)cc1 [Example 381, 1-{4-[1-(1-benzoylpiperidin-4-yl)-4-morpholin-4-yl-1H-pyrazolo[3,4-d]pyrimidin-6-yl]phenyl}-3-ethylurea] | 27 | 355 | –
20 | CNC(=O)Nc1ccc(-c2nc(N3CCOCC3)c3cnn(C4CCN(C(=O)OC)CC4)c3n2)cc1 [Example 476, methyl 4-(6-{4-[(methylcarbamoyl)amino]phenyl}-4-morpholin-4-yl-1H-pyrazolo[3,4-d]pyrimidin-1-yl)piperidine-1-carboxylate] | – | – | 100

Continued, in another order:

Row | IC50 (prostate line LNCap) [nM] | IC50 (PI3K) [nM] | SMILES | IC50 (breast line MDA468) [nM]
21 | 200 | 32 | O=C(Nc1ccc(-c2nc(N3CCOCC3)c3cnn(C4CCN(C(=O)c5cccnc5)CC4)c3n2)cc1)Nc1cccnc1 [Example 302, 1-(4-{4-morpholin-4-yl-1-[1-(pyridin-3-ylcarbonyl)piperidin-4-yl]-1H-pyrazolo[3,4-d]pyrimidin-6-yl}phenyl)-3-pyridin-3-ylurea] | –
22 | 27 | 20 | O=C(Nc1ccc(-c2nc(N3CCOCC3)c3cnn(C4CCN(Cc5cccnc5)CC4)c3n2)cc1)Nc1cccnc1 [Example 314, 1-(4-{4-morpholin-4-yl-1-[1-(pyridin-3-ylmethyl)piperidin-4-yl]-1H-pyrazolo[3,4-d]pyrimidin-6-yl}phenyl)-3-pyridin-3-ylurea] | –
23 | 27 | 338 | O=C(NCCF)Nc1ccc(-c2nc(N3CCOCC3)c3cnn(C4CCN(Cc5cccnc5)CC4)c3n2)cc1 [Example 315, 1-(2-fluoroethyl)-3-(4-{4-morpholin-4-yl-1-[1-(pyridin-3-ylmethyl)piperidin-4-yl]-1H-pyrazolo[3,4-d]pyrimidin-6-yl}phenyl)urea] | –
24 | 27 | 187 | CCNC(=O)Nc1ccc(-c2nc(N3CCOCC3)c3cnn(C4CCN(Cc5cccnc5)CC4)c3n2)cc1 [Example 318, 1-ethyl-3-(4-{4-morpholin-4-yl-1-[1-(pyridin-3-ylmethyl)piperidin-4-yl]-1H-pyrazolo[3,4-d]pyrimidin-6-yl}phenyl)urea] | –
25 | 27 | 70 | CNC(=O)Nc1ccc(-c2nc(N3CCOCC3)c3cnn(C4CCN(C(=O)c5ccccc5)CC4)c3n2)cc1 [Example 336, 1-{4-[1-(1-benzoylpiperidin-4-yl)-4-morpholin-4-yl-1H-pyrazolo[3,4-d]pyrimidin-6-yl]phenyl}-3-methylurea] | –
26 | 27 | 15 | O=C(Nc1ccncc1)Nc1ccc(-c2nc(N3CCOCC3)c3cnn(C4CCN(C(=O)c5cccnc5)CC4)c3n2)cc1 [Example 344, 1-(4-{4-morpholin-4-yl-1-[1-(pyridin-3-ylcarbonyl)piperidin-4-yl]-1H-pyrazolo[3,4-d]pyrimidin-6-yl}phenyl)-3-pyridin-4-ylurea] | –
27 | 27 | 79 | CNC(=O)Nc1ccc(-c2nc(N3CCOCC3)c3cnn(C4CCN(C(=O)c5ccccc5Cl)CC4)c3n2)cc1 [Example 355, 1-(4-{1-[1-(2-chlorobenzoyl)piperidin-4-yl]-4-morpholin-4-yl-1H-pyrazolo[3,4-d]pyrimidin-6-yl}phenyl)-3-methylurea] | –
28 | 27 | 35 | O=C(Nc1ccc(-c2nc(N3CCOCC3)c3cnn(C4CCN(C(=O)c5ccccc5)CC4)c3n2)cc1)Nc1cccnc1 [Example 379, 1-{4-[1-(1-benzoylpiperidin-4-yl)-4-morpholin-4-yl-1H-pyrazolo[3,4-d]pyrimidin-6-yl]phenyl}-3-pyridin-3-ylurea] | –
29 | 35 | 15 | O=C(Nc1ccc(-c2nc(N3CCOCC3)c3cnn(C4CCN(C(=O)c5cccnc5)CC4)c3n2)cc1)Nc1cccs1 [Example 413, 1-(4-{4-morpholin-4-yl-1-[1-(pyridin-3-ylcarbonyl)piperidin-4-yl]-1H-pyrazolo[3,4-d]pyrimidin-6-yl}phenyl)-3-(2-thienyl)urea] | –
